Read-outs that look alike come from different tables or passages of the source.
How the values were obtained:
[1] = Biliary excretion in bile duct drained rats after oral RPM extract; settings: single p.o. RPM extract 18 g/kg, rat bile
Procedure: (§1) For the excretion study, the rats were housed singly in metabolic cages with urine collection tubes kept at 4 °C during sample collection. Urine and fecal samples were collected at time intervals of 0–4, 4–8, 8–24, 24–32, and 32–48 h after a single dose of RPM extract at 18 g/kg and then weighed. Another six rats were anesthetized with pentobarbital, fixed in the supine position and subjected to bile duct drainage surgery, and the abdominal wound was sutured. Blank bile samples were collected before the administration of RPM. The rats were weighed, and the state of the rats was observed. Subsequently, they were orally administered 18 g/kg RPM extract. The bile samples were collected at time intervals of 0–1, 1–2, 2–4, 4–6, 6–8, 8–24, 24–32 and 32–48 h. The urine, feces, and bile samples were stored at −70°C until use.
(§2) Samples were prepared using the protein precipitation process. […] After vortex shaking for 5 min and centrifugation at 14,000 g for 5 min, 150 μL of the organic layer was transferred to a clean tube and evaporated to dryness at 25°C under a stream of nitrogen. The residue was reconstituted in 50 μL of the initial mobile phase and subjected to another round of centrifugation at 14,000 g for 5 min, and 5 μL of the supernatant was injected for LC–MS/MS analysis. […] Urine and bile samples were centrifuged at 4°C and 12,000 × g for 15 min. Fecal samples were homogenized in 0.9% saline and then centrifuged at 4°C and 12,000 × g for 15 min to gather the fecal homogenates. Tissue homogenate, urine, bile and fecal samples were subjected to a similar process as the rat plasma samples.
(§3) For the excretion study, 6 rats were placed in metabolic cage after orally administered with 18 g/kg RPM extract, and urine, feces samples were collected at time intervals of 0–4, 4–8, 8–24, 24–32, 32–48, 48–60, and 60–72 h. Another 6 rats were anesthetized with pentobarbital, fixed in the supine position and performed bile duct drainage operation, and the abdominal wound was sutured. […] Subsequently, they were orally administered with 18 g/kg RPM extract. The bile samples were collected at time intervals of 0–1, 1–2, 2–4, 4–6, 6–8, 8–24, 24–32 and 32–48 h. The urine, feces, and bile samples were stored at −70 °C until use.

[2] = RPM extract 36 g/kg p.o., rat plasma, Mean ± SD, n = 6; ref Cheng et al., 2020; cited from earlier work
[3] = Tissue distribution of RPM constituents after oral RPM extract; settings: Sprague-Dawley, rat, po, 18 g/kg
Procedure: For the tissue distribution study, 18 rats were randomly divided into three groups (n = 6, each) and orally administered 18 g/kg RPM extract. The rats under isoflurane anesthesia were sacrificed by bleeding from the abdominal aorta at 5, 15, and 60 min (six rats per time point) after gavage with 18 g/kg RPM extract. Subsequently, the heart, liver, spleen, lung, kidney, brain, stomach, small intestine, bladder, and gonads (testes of male rats, and uterus and ovaries of female rats) were immediately collected. An accurately weighed amount of fresh tissue sample (0.25 g) was individually homogenized with normal saline (1 ml) and transferred (50 μL) as a tissue homogenate to 1.5 ml centrifuge tubes for use as the tissue samples. All tissue samples were stored at −70°C until analysis.
Samples were prepared using the protein precipitation process. […] The tissue samples were homogenized in four parts of ice-cold 0.9% saline solution and then centrifuged at 4°C and 12,000 × g for 10 min to obtain tissue homogenates. […] Tissue homogenate, urine, bile and fecal samples were subjected to a similar process as the rat plasma samples.
For the tissue distribution study, 18 rats were randomly divided into three groups (n=6, each), and orally administered with 18 g/kg RPM extract. The rats were sacrificed at 5, 15, 60 min after orally administering RPM. Subsequently, the heart, liver, spleen, lung, kidney, brain, stomach, small intestine, bladder, gonad (testes of male rats, uterus and ovaries of female rats) were immediately collected. An accurately weighed amount of fresh tissue sample (0.25 g) was individually homogenized with normal saline (1 mL) and transferred (50 μL) as a tissue homogenate to 1.5 mL centrifuge tubes for use as the tissue samples.

[4] = Plasma pharmacokinetics of RPM constituents after oral RPM extract; settings: for time at which C max was exhibited: RPM extract p.o.; for plasma concentrations: RPM extract 6, 18 and 36 g/kg p.o.
Source text: For the pharmacokinetic (PK) study, three groups (n = 6 each) of rats were orally administered RPM extract (6, 18, and 36 g/kg). In the plasma pharmacokinetics experiment, doses were 6, 18, and 36 g/kg for the single administration group and 18 g/kg for the continuous administration group. The doses were set at a subtoxic level ([Zhang et al., 2013]; [Wang et al., 2015]) to investigate the pharmacokinetic profiles of the constituents of RPM (36 g/kg group) and were approximately 60 times the upper dose (6 g/day) for humans recommended by the 2020 edition of Chinese Pharmacopoeia ([Chinese Pharmacopoeia Commission, 2020]), which was converted to a dose for rats based on body surface area conversion ([Reagan-Shaw et al., 2008]). In addition, the low and medium doses decreased in a certain proportion. Serial blood samples (∼120 μL; before dosing and at 5, 15, and 30 min, and 1, 2, 4, 6, 8, 12, and 24 h after administration) were collected in heparinized tubes from the orbital sinus under light isoflurane. The blood samples were centrifuged at 12000 g for 2 min, and the plasma fractions were decanted and frozen at −70°C until analysis.
Samples were prepared using the protein precipitation process. Rat plasma (50 μL) spiked with 10 μL of IS (puerarin 100 ng/ml) was extracted with 150 μL acetonitrile. After vortex shaking for 5 min and centrifugation at 14,000 g for 5 min, 150 μL of the organic layer was transferred to a clean tube and evaporated to dryness at 25°C under a stream of nitrogen. The residue was reconstituted in 50 μL of the initial mobile phase and subjected to another round of centrifugation at 14,000 g for 5 min, and 5 μL of the supernatant was injected for LC–MS/MS analysis.
The analysis was performed on an AB Sciex API 5500 Q Trap mass spectrometer (Toronto, Canada), interfaced with a Waters Acquity UPLC separation module.
(§4) The pharmacokinetic parameters, including the area under the plasma concentration-time curve from time zero to time t (AUC0-t) to time infinity (AUC0-∞), the time to reach the maximum plasma concentration (T max), the elimination half-time (t 1/2), and the maximum plasma concentration (C max), were calculated using the pharmacokinetic software Phoenix® WinNonlin®, version 7.0 (Scientific Consulting Inc., Apex, NC, United States). Data are expressed as the mean ± standard deviation (SD) for each group. The dose-exposure relationship was evaluated by the power function model combined with the confidence interval method ([Smith et al., 2000]; [Sethuraman et al., 2007]; [Hummel et al., 2009]). First, the administration dose, AUC0-∞ and C max were logarithmically transformed, and then a linear regression was performed to obtain the curve correlation coefficient (R^2), slope and 90% confidence interval (90% CI).

[5] = Dose-exposure relationship (power function model with confidence interval method)
Procedure: as §4

[6] = Excretion into urine and feces and mass balance after oral RPM extract; settings: for dose excreted: Sprague-Dawley, rat, po; for cumulative excretion into urine / detection in urine: rat urine
Procedure: as §1, §2, §3

[7] = Sprague-Dawley, rat, plasma, po, 6 g/kg
[8] = Sprague-Dawley, rat, plasma, po, 18 g/kg
[9] = AUC0-∞ vs p.o. dose of RPM extract, critical interval 0.88–1.12
[10] = C max vs p.o. dose of RPM extract, critical interval 0.80–1.20
[11] = log AUC0-∞ vs log p.o. dose of RPM extract, critical interval 0.88–1.12
[12] = log C max vs log p.o. dose of RPM extract, critical interval 0.80–1.20
[13] = feces, Recovery in feces (%), mass balance, 18 g/kg RPM extract p.o., feces collected 0–72 h
[14] = urine, Recovery in urine (%), mass balance, 18 g/kg RPM extract p.o., urine collected 0–72 h
[15] = single p.o. RPM extract 18 g/kg, rat feces
[16] = single p.o. RPM extract 18 g/kg
[17] = both, bladder, AUC0-t in bladder, rat tissue: bladder, 18 g/kg RPM extract p.o., tissues collected at 5, 15, 60 min
[18] = both, heart, AUC0-t in heart, rat tissue: heart, 18 g/kg RPM extract p.o., tissues collected at 5, 15, 60 min
[19] = both, intestine, AUC0-t in intestine, rat tissue: intestine, 18 g/kg RPM extract p.o., tissues collected at 5, 15, 60 min
[20] = both, kidney, AUC0-t in kidney, rat tissue: kidney, 18 g/kg RPM extract p.o., tissues collected at 5, 15, 60 min
[21] = both, liver, AUC0-t in liver, rat tissue: liver, 18 g/kg RPM extract p.o., tissues collected at 5, 15, 60 min
[22] = both, lung, AUC0-t in lung, rat tissue: lung, 18 g/kg RPM extract p.o., tissues collected at 5, 15, 60 min
[23] = both, spleen, AUC0-t in spleen, rat tissue: spleen, 18 g/kg RPM extract p.o., tissues collected at 5, 15, 60 min
[24] = both, stomach, AUC0-t in stomach, rat tissue: stomach, 18 g/kg RPM extract p.o., tissues collected at 5, 15, 60 min
[25] = female, uterus, AUC0-t in uterus, rat tissue: uterus, 18 g/kg RPM extract p.o., tissues collected at 5, 15, 60 min
[26] = female, ovary, AUC0-t in ovary, rat tissue: ovary, 18 g/kg RPM extract p.o., tissues collected at 5, 15, 60 min
[27] = urine and feces, recovery from the urine and feces, single p.o. RPM extract 18 g/kg, rats

cumulative excretion into bile [1] [nmol] | AUC(0-inf) [4, 7] [µM·h] | AUC(0-t) [4, 7] [µM·h] | Cmax [4, 7] [nM] | MRT inf [4, 7] [h] | Tmax [4, 7] [h] | half-life [4, 7] [h] | AUC(0-inf) [4, 8] [µM·h] | AUC(0-t) [4, 8] [µM·h] | Cmax [4, 8] [nM] | MRT inf [4, 8] [h] | half-life [4, 8] [h] | Conclusion (dose-exposure relationship) [5, 9] | Conclusion (dose-exposure relationship) [5, 10] | Slope (90%CI) [5, 11] | Slope (90%CI) [5, 12] | Tmax [4, 8] [h] | SMILES | AUC0-∞ [2] [µM·h] | AUC(0-t) [2] [µM·h] | Cmax [2] [nM] | other results
– | – | – | – | – | – | – | – | – | – | – | – | – | – | – | – | – | Cc1cc(O)c2c(c1)C(=O)c1cccc(O[C@@H]3O[C@H](CO)[C@@H](O)[C@H](O)[C@H]3O)c1C2=O [CG, chrysophanol-8-O-β-D-glucoside] | – | – | – | plasma concentrations ([4]; rat plasma): too low to be detected
– | 0.34 ± 0.195 | 0.0748 ± 0.0589 | 9.36 ± 3.26 | 40.3 ± 23.3 | 1.03 ± 0.96 | 26.3 ± 14.4 | – | 0.0198 ± 0.00941 | 7.87 ± 2.19 | – | – | Nonlinear correlation | Nonlinear correlation | –0.667 (–1.14 to –0.193) | –0.158 (-0.337–0.021) | 3.51 ± 3.06 | Cc1cc(O)c2c(c1)C(=O)c1cccc(O)c1C2=O [Chrysophanol] | 0.0404 ± 0.00736 | 0.0169 ± 0.00647 | 7.48 ± 2.21 | AUC(0-t) [3, 17]: 0.0376 µM·h; AUC(0-t) [3, 18]: 0.0311 µM·h; AUC(0-t) [3, 19]: 0.0277 µM·h; AUC(0-t) [3, 20]: 0.0132 µM·h; AUC(0-t) [3, 21]: 0.0273 µM·h; AUC(0-t) [3, 22]: 0.0476 µM·h; AUC(0-t) [3, 23]: 0.0503 µM·h; AUC(0-t) ([3]; both, spleen, AUC0-t in the spleen, RPM extract 18 g/kg p.o., rat spleen, sampling 5, 15, 60 min): 0.0503 µM·h; AUC(0-t) [3, 24]: 0.0345 µM·h; AUC(0-t) [3, 25]: 0.029 µM·h
18.2 ± 3.29 | 0.0919 ± 0.0145 | 0.0777 ± 0.00612 | 16.8 ± 4.1 | 7.55 ± 1.48 | 0.29 ± 0.1 | 4.83 ± 0.99 | 0.192 ± 0.0126 | 0.176 ± 0.0168 | 34.2 ± 4.59 | 9.64 ± 2.05 | 7.09 ± 2.12 | Nonlinear correlation | Nonlinear correlation | 0.429 (0.326–0.532) | 0.524 (0.396–0.652) | 0.26 ± 0.13 | COc1cc(O[C@@H]2O[C@H](CO)[C@@H](O)[C@H](O)[C@H]2O)c2c(c1)C(=O)c1cc(C)cc(O)c1C2=O [PG, physcion-8-O-β-D-glucoside] | 0.188 ± 0.0186 | 0.178 ± 0.0201 | 42.1 ± 10.9 | MRT0-∞ [2]: 8.58 ± 1.72 h; t 1/2 [2]: 6.13 ± 1.06 h; AUC(0-t) [3, 17]: 0.205 µM·h; AUC(0-t) ([3]; both, brain, AUC0-t in brain, rat tissue: brain, 18 g/kg RPM extract p.o., tissues collected at 5, 15, 60 min): 0.125 µM·h; AUC(0-t) [3, 18]: 1.64 µM·h; AUC(0-t) [3, 19]: 0.692 µM·h; AUC(0-t) [3, 20]: 3.21 µM·h; AUC(0-t) [3, 21]: 3.38 µM·h; AUC(0-t) [3, 22]: 0.842 µM·h; AUC(0-t) [3, 23]: 2.69 µM·h; AUC(0-t) [3, 24]: 1.29 µM·h; AUC(0-t) [3, 26]: 0.614 µM·h; AUC(0-t) [3, 25]: 0.735 µM·h; AUC(0-t) ([3]; male, testis, AUC0-t in testis, rat tissue: testis, 18 g/kg RPM extract p.o., tissues collected at 5, 15, 60 min): 0.0806 µM·h; time at which C max was exhibited ([4]; rat plasma): ≤ 20 min; dose excreted [6, 13]: 11.6%; dose excreted [6, 27]: 16.4%; dose excreted [6, 14]: 4.83%; cumulative excretion into feces [6, 15]: 13.6 ± 1.12 nmol; cumulative excretion into urine [6, 16]: 5.53 ± 2.08 nmol
– | 0.027 ± 0.0228 | 0.00861 ± 0.00169 | 1.09 ± 0.317 | 12.2 ± 2.93 | 3.5 ± 2.17 | 8 ± 2.01 | 0.0583 ± 0.0143 | 0.0401 ± 0.00898 | 3.54 ± 0.652 | 20.6 ± 13.5 | 14.4 ± 9.99 | Nonlinear correlation | Uncertainty of linear relationship | 0.551 (0.275–0.827) | 0.774 (0.610–0.938) | 1.83 ± 1.8 | COc1cc(O)cc2c1C(=O)c1c(O)cc(CO)cc1C2=O [Questinol, questinol] | 0.0575 ± 0.00945 | 0.0473 ± 0.00685 | 4 ± 0.673 | detection in bile [1]: not detected; MRT0-∞ [2]: 13.6 ± 4.21 h; T max [2]: 4.38 ± 4.03 h; t 1/2 [2]: 8.90 ± 2.70 h; AUC(0-t) [3, 17]: 0.0169 µM·h; AUC(0-t) [3, 18]: 0.034 µM·h; AUC(0-t) [3, 20]: 0.0243 µM·h; AUC(0-t) [3, 21]: 0.0553 µM·h; AUC(0-t) [3, 22]: 0.0251 µM·h; AUC(0-t) [3, 23]: 0.0103 µM·h; AUC(0-t) [3, 24]: 0.0061 µM·h; AUC(0-t) [3, 26]: 0.0168 µM·h; AUC(0-t) [3, 25]: 0.0186 µM·h; dose excreted [6, 27]: 4.12%; cumulative excretion into feces [6, 15]: 0.566 ± 0.0666 nmol; detection in urine [6, 16]: not have been detected
45.0 ± 8.41 | – | – | – | – | – | – | – | 0.00426 ± 0.00299 | – | – | – | – | Nonlinear correlation | – | 0.034 (-0.482–0.550) | 0.42 ± 0.14 | O=C(O)c1cc(O)c2c(c1)C(=O)c1cccc(O)c1C2=O [Rhein, rhein] | 0.00814 ± 0.00178 | 0.00391 ± 0.00223 | 3.74 ± 0.84 | Cmax ([4]; RPM extract 18 g/kg p.o., rat plasma, Mean ± SD, n = 6): 3.72 ± 1.25 nM; plasma concentration ([4]; rats dosed with 6 g/kg RPM, plasma): could not be detected; detection in feces [6, 15]: not detected; detection in urine [6, 16]: not detected
– | – | – | – | – | – | – | – | – | – | – | – | – | – | – | – | – | COc1cc(O)cc2c1C(=O)c1c(O)cc(C)cc1C2=O [questin] | – | – | – | plasma concentrations ([4]; rat plasma): too low to be detected

SMILES | cumulative excretion into bile [1] [nmol] | AUC(0-inf) [4, 7] [µM·h] | AUC(0-t) [4, 7] [µM·h] | Cmax [4, 7] [nM] | MRT inf [4, 7] [h] | Tmax [4, 7] [h] | half-life [4, 7] [h] | AUC(0-inf) [4, 8] [µM·h] | AUC(0-t) [4, 8] [µM·h] | Cmax [4, 8] [nM] | MRT inf [4, 8] [h] | half-life [4, 8] [h] | Conclusion (dose-exposure relationship) [5, 9] | Conclusion (dose-exposure relationship) [5, 10] | Slope (90%CI) [5, 11] | Slope (90%CI) [5, 12] | Tmax [4, 8] [h] | AUC0-∞ [2] [µM·h] | AUC(0-t) [2] [µM·h] | Cmax [2] [nM] | other results
O=C1c2cccc(O)c2C(=O)c2c(O)cc(CO)cc21 [Aloe-emodin, aloe-emodin] | 61.1 ± 8.66 | 0.0124 ± 0.007 | 0.00832 ± 0.00416 | 8.25 ± 7.47 | 9.61 ± 8.77 | 0.29 ± 0.1 | 8.46 ± 7.14 | 0.0324 ± 0.0144 | 0.0254 ± 0.0097 | 31.7 ± 3.03 | 4.65 ± 3.53 | 5.09 ± 3.38 | Uncertainty of linear relationship | Uncertainty of linear relationship | 0.582 (0.278–0.885) | 1.07 (0.795–1.35) | – | 0.0313 ± 0.0127 | 0.027 ± 0.012 | 42 ± 11.5 | AUC(0-t) ([3]; both, brain): 0.00106 µM·h; AUC(0-t) ([3]; both, heart): 0.0169 µM·h; AUC(0-t) ([3]; both, intestine): 0.00733 µM·h; AUC(0-t) ([3]; both, kidney): 0.00977 µM·h; AUC(0-t) ([3]; both, liver): 0.0555 µM·h; AUC(0-t) ([3]; both, lung): 0.0313 µM·h; AUC(0-t) ([3]; both, spleen): 0.0525 µM·h; AUC(0-t) ([3]; both, stomach): 0.0238 µM·h; AUC(0-t) ([3]; female, ovary): 0.00666 µM·h; time at which C max was exhibited ([4]; rat plasma): ≤ 20 min; dose excreted [6, 13]: 21.7%; dose excreted ([6]; urine and feces, Recovery in urine and feces (%), mass balance, 18 g/kg RPM extract p.o., urine plus feces, 0–72 h): 31.4%; dose excreted [6, 14]: 9.69%; cumulative excretion into feces [6, 15]: 43.7 ± 6.18 nmol; cumulative excretion into urine [6, 16]: 19.3 ± 5.44 nmol
